Results as given in ChEMBL document CHEMBL3886897, “Macrocyclic indole derivatives useful as hepatitis C virus inhibitors” (2016).

What was measured:
[1] = biological target: RNA-directed RNA polymerase (Hepacivirus hominis) (UniProt O39930)
[2] = biological target: RNA-directed RNA polymerase (Hepacivirus hominis) (UniProt O39930); remark: listed apart in the source
[3] = biological target: RNA-directed RNA polymerase (Hepacivirus hominis) (UniProt O39930); remark: listed apart in the source
[4] = biological target: RNA-directed RNA polymerase (Hepacivirus hominis) (UniProt O39930); remark: listed apart in the source
[5] = biological target: RNA-directed RNA polymerase (Hepacivirus hominis) (UniProt O39930); remark: listed apart in the source
[6] = biological target: RNA-directed RNA polymerase (Hepacivirus hominis) (UniProt O39930); remark: listed apart in the source
[7] = biological target: RNA-directed RNA polymerase (Hepacivirus hominis) (UniProt O39930); remark: listed apart in the source
[8] = biological target: RNA-directed RNA polymerase (Hepacivirus hominis) (UniProt O39930); remark: listed apart in the source
[9] = biological target: RNA-directed RNA polymerase (Hepacivirus hominis) (UniProt O39930); remark: listed apart in the source
[10] = biological target: RNA-directed RNA polymerase (Hepacivirus hominis) (UniProt O39930); remark: listed apart in the source

Chain of RNA-directed RNA polymerase (Hepacivirus hominis) (O39930 1-591): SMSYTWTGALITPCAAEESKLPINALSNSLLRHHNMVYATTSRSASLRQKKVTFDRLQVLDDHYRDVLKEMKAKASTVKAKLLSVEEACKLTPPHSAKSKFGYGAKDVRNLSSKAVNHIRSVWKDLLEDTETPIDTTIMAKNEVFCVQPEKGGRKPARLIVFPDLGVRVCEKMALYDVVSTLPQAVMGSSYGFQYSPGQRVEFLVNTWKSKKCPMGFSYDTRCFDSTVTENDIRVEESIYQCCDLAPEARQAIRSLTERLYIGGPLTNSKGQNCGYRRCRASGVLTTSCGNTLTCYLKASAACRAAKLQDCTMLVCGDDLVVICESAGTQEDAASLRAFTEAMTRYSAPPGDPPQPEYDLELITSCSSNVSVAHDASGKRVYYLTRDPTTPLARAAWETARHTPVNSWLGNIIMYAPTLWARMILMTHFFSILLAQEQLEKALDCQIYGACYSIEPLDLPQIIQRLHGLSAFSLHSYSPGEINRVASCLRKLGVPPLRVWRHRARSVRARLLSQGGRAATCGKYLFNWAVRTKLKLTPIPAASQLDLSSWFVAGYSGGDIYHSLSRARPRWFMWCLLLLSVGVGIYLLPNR

Structure (SMILES) | k off [1] | also measured
COc1ccc2c(c1)C=C1Cn3c-2c(C2CCCCC2)c2ccc(cc23)C(=O)NS(=O)(=O)N(C)CCCCNC1=O | 4.1e-05 s⁻¹ | –
CN1CCCCCNC(=O)C2=Cc3ccc(Cl)cc3-c3c(C4CCCCC4)c4ccc(cc4n3C2)C(=O)NS1(=O)=O | 0.0038 s⁻¹ | –
CN1CCCCN(C)S(=O)(=O)NC(=O)c2ccc3c(C4CCCCC4)c4n(c3c2)CC(=Cc2ccc(Cl)cc2-4)C1=O | 0.0037 s⁻¹ | –
COc1ccc2c(c1)C=C1Cn3c-2c(C2CCCCC2)c2ccc(cc23)C(=O)NS(=O)(=O)NCCCCN(C)C1=O | 0.00031 s⁻¹ | –
COc1ccc2c(c1)C=C1Cn3c-2c(C2CCCCC2)c2ccc(cc23)C(=O)NS(=O)(=O)N(C)CCOCCN(C)C1=O | 9e-05 s⁻¹ | k off [2]: 0.0001 s⁻¹; k off [3]: 0.022 s⁻¹; k off [4]: 0.00097 s⁻¹; k off [5]: 0.022 s⁻¹; k off [6]: 0.00084 s⁻¹; k off [7]: 0.00015 s⁻¹; k off [8]: 0.00015 s⁻¹; k off [9]: 0.00013 s⁻¹; k off [10]: 7.6e-05 s⁻¹
COc1ccc2c(c1)C=C1Cn3c-2c(C2CCCCC2)c2ccc(cc23)C(=O)NS(=O)(=O)N(C(C)C)CCCCN(C)C1=O | 6.6e-05 s⁻¹ | –
COc1ccc2c(c1)C(C)=C1Cn3c-2c(C2CCCCC2)c2ccc(cc23)C(=O)NS(=O)(=O)N(C)CCOCCN(C)C1=O | 3.6e-05 s⁻¹ | –
COc1ccc2c(c1)C=C1Cn3c-2c(C2CCCCC2)c2ccc(cc23)C(=O)NS(=O)(=O)N(C)CCCCN(C)C1=O | 4.8e-05 s⁻¹ | –
COc1ccc2c(c1)C(C)=C1Cn3c-2c(C2CCCCC2)c2ccc(cc23)C(=O)NS(=O)(=O)N(C)CCCCN(C)C1=O | 0.00016 s⁻¹ | –
